Data reported in patent publication US10865203B2, “Ligands selective to alpha 6 subunit-containing GABAA receptors and their methods of use” (UWM Research Foundation, Inc., priority 2015, dated 2020).

Key:
[1] = Microsomal stability assay, mouse liver microsomes; format: in vitro ADME; conditions: 10 μM test compound, 0.5 mg/mL protein, 37° C.
Protocol: (§1) 4 μL of 1 mM test compound at a final concentration of 10 μM dissolved in DMSO/ACN/Methanol/Ethanol was preincubated at 37° C. for 5 minutes on a digital heating shaking dry bath (Fischer scientific, Pittsburgh, Pa.) in a mixture containing 282 μL of water, 80 μL of phosphate buffer (0.5 M, pH 7.4), 20 μL of NADPH Regenerating System Solution A (BD Bioscience, San Jose, Calif.) and 4 μL of NADPH Regenerating System Solution B (BD Bioscience, San Jose, Calif.) in a total volume of 391.2 μL. Following preincubation, the reaction was initiated by addition of 8.8 μL of either human liver microsomes (BD Gentest, San Jose, Calif.), mouse liver microsomes (Life technologies, Rockford, Ill.), at a protein concentration of 0.5 mg/mL. Aliquots of 50 μL were taken at time intervals of 0 (without microsomes), 10, 20, 30, 40, 50 and 60 minutes. Each aliquot was added to 100 μL of cold acetonitrile solution containing 1 μM/2 μM internal standard. This was followed by sonication for 10 seconds and centrifugation at 10,000 rpm for 5 minutes. 100 μL of the supernatant was transferred into Spin-X HPLC filter tubes (Corning Incorporated, NY) and centrifuged at 13,000 rpm for 5 minutes. […] The ratio of the peak areas of the internal standard and test compound was calculated for every time point and the natural log of the ratio were plotted against time to determine the linear slope (k). […] All experiments were repeated three times in duplicates.

[2] = Microsomal stability assay, human liver microsomes; format: in vitro ADME; conditions: 10 μM test compound, 0.5 mg/mL protein, 37° C.
Protocol: as §1

[2H]C([2H])([2H])Oc1ccc(-n2nc3c4ccc(OC)cc4[nH]cc-3c2=O)cn1 [DK-II-60-1, 7-Methoxy-2-(6-methoxy-d3-pyridin-3-yl)-2,5-dihydro-3H-pyrazolo[4,3-c]quinolin-3-one]
% left after 1 hr. (MLM) [1]: 92.4 ± 0.12%
Half-life (min) (MLM) [1]: 640 ± 102 min
% left after 1 hr. (HLM) [2]: 92.5 ± 0.12%
Half-life (min) (HLM) [2]: 592.5 ± 96 min

[2H]C([2H])([2H])Oc1ccc(-n2nc3c4cc(Cl)ccc4[nH]cc-3c2=O)cc1 [DK-I-93-1, 8-Chloro-2-(4-methoxy-d3-phenyl)-2,5-dihydro-3H-pyrazolo[4,3-c]quinolin-3-one]
% left after 1 hr. (MLM) [1]: 85.53 ± 0.07%
Half-life (min) (MLM) [1]: 263 ± 5.96 min
% left after 1 hr. (HLM) [2]: 92.2 ± 0.15%
Half-life (min) (HLM) [2]: 640 ± 126 min

[2H]C([2H])([2H])Oc1ccc(-n2nc3c4ccc(Br)cc4[nH]cc-3c2=O)cn1 [DK-II-58-1, 7-Bromo-2-(6-methoxy-d3-pyridin-3-yl)-2,5-dihydro-3H-pyrazolo[4,3-c]quinolin-3-one]
% left after 1 hr. (MLM) [1]: 98.39 ± 0.06%
Half-life (min) (MLM) [1]: 4250 ± 0.001 min
% left after 1 hr. (HLM) [2]: 97.8 ± 0.06%
Half-life (min) (HLM) [2]: 2341 ± 0.001 min

COc1ccc2c3nn(-c4ccc(OC)nc4)c(=O)c-3c[nH]c2c1 [DK-II-13-1, 7-Methoxy-2-(6-methoxypyridin-3-yl)-2,5-dihydro-3H-pyrazolo[4,3-c]quinolin-3-one]
% left after 1 hr. (MLM) [1]: 74.77 ± 0.12%
Half-life (min) (MLM) [1]: 139.2 ± 5.8 min
% left after 1 hr. (HLM) [2]: 93 ± 0.14%
Half-life (min) (HLM) [2]: 794 ± 182 min

COc1ccc(-n2nc3c4cc(Cl)ccc4[nH]cc-3c2=O)cn1 [DK-II-18-1, 8-Chloro-2-(6-methoxypyridin-3-yl)-2,5-dihydro-3H-pyrazolo[4,3-c]quinolin-3-one]
% left after 1 hr. (MLM) [1]: 85.6 ± 0.12%
Half-life (min) (MLM) [1]: 265 ± 17 min
% left after 1 hr. (HLM) [2]: 91.6 ± 0.10%
Half-life (min) (HLM) [2]: 511 ± 44 min

[2H]C([2H])([2H])Oc1ccc(-n2nc3c4cc(Cl)ccc4[nH]cc-3c2=O)cn1 [DK-II-59-1, 8-Chloro-2-(6-methoxy-d3-pyridin-3-yl)-2,5-dihydro-3H-pyrazolo[4,3-c]quinolin-3-one]
% left after 1 hr. (MLM) [1]: 85.1 ± 0.10%
Half-life (min) (MLM) [1]: 250.62 ± 13 min
% left after 1 hr. (HLM) [2]: 93 ± 0.12%
Half-life (min) (HLM) [2]: 725.8 ± 146 min
